Measurements published in patent US8378117B2 (priority 2005, dated 2013).
pEC50, pIC50: −log10 of the molar value. Like-named read-outs stand apart in the source and are kept apart here.

Experiments:
CB1 receptor [1] = biological target: T1, CB1 receptor (Homo sapiens, UniProt P21554); assay: Binding assay for CB1 agonists or inverse agonists (SK-N-MC membranes, [3H]-CP-55,940); settings: for inhibition at 0.2 µM: read-out: CB1 receptor binding percent inhibition, test concentration 0.2 μM (footnote 2)
T1 construct: expressed in transfected cells
Outline: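 Membranes from SK-N-MC cells stably expressing human CB1 incubated with compound and [3H]-CP-55,940 ([…]) for 90 min at 30° C in Tris-HCl pH 7.5, MgCl2, EDTA, fatty-acid-free BSA. Non-specific binding defined with 10 uM WIN 55,212; filtration, scintillation count; IC50 by linear regression.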

CB2 receptor [2] = biological target: T2, CB2 receptor (Homo sapiens, UniProt P34972); assay: Binding assay for CB2 agonists or inverse agonists (SK-N-MC membranes, [3H]-CP-55,940); settings: for pIC50: Cannabinoid CB2 Receptor Binding IC50, calculated by linear regression from percent inhibition at various test concentrations
T2 construct: expressed in transfected cells
Outline: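 Membranes from SK-N-MC cells stably expressing human CB2 were incubated with radioligand and test compounds for 90 min at 30 °C in Tris-HCl buffer, pH 7.5, with MgCl2, EDTA and fatty-acid-free BSA. Filter-bound radioactivity was counted; IC50 was derived by linear regression of percent inhibition.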

CB1 receptor [3] = biological target: T1, CB1 receptor; assay: cell-based; settings: CB1 Receptor Functional Agonist EC50, SK-N-MC cells, forskolin induced β-galactosidase activity
Outline: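 SK-N-MC cells stably co-expressing human CB1 and a CRE-β-galactosidase reporter; forskolin-induced β-gal activity measured after compound treatment, as % of vehicle-treated cells (100%). EC50 by linear regression from concentration series; otherwise % change at a single concentration.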

CB1 receptor [4] = biological target: T1, CB1 receptor; assay: Modified functional cell-based assay (Beta-Glo luminescence), CB1 receptor
Procedure: (§1) Additional functional activity studies were performed with minor modifications. Beta galactosidase activity was quantified using the luminescent Beta-Glo Assay System (Promega Corp. Madison, Wis.) and an Orion Microplate Luminometer (Berthold Detection Systems, Oak Ridge, Tenn.). The EC50 values were calculated using GraphPad Prism and a four parameter logistic equation.
(§2) The functional activity EC50 value for compounds tested (shown in Table 8) were obtained from studies in which varying compound concentrations were used. With the exception of Cpd 237 (n=3), one sample for each compound was tested.

CB2 receptor [5] = biological target: T2, CB2 receptor; assay: Modified functional cell-based assay (Beta-Glo luminescence), CB2 receptor; settings: CB2 EC50 (Receptor Functional Activity), one sample per compound, Cpd 237 n=3
Procedure: as §1, §2

[6] = Cannabinoid CB1 Receptor Binding IC50, calculated by linear regression from percent inhibition at various test concentrations
[7] = CB1 EC50 (Receptor Functional Activity), one sample per compound, Cpd 237 n=3

T2 sequence (P34972 whole entry): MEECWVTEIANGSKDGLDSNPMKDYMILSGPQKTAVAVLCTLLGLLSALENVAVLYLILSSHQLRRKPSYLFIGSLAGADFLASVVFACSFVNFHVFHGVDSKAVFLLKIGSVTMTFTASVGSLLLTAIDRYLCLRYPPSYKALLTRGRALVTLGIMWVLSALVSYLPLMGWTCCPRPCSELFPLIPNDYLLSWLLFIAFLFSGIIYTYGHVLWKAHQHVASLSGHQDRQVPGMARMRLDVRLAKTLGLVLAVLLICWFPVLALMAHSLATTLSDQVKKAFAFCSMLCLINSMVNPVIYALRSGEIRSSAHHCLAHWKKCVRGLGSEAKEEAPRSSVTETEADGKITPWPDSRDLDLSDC
T1 sequence (P21554 whole entry): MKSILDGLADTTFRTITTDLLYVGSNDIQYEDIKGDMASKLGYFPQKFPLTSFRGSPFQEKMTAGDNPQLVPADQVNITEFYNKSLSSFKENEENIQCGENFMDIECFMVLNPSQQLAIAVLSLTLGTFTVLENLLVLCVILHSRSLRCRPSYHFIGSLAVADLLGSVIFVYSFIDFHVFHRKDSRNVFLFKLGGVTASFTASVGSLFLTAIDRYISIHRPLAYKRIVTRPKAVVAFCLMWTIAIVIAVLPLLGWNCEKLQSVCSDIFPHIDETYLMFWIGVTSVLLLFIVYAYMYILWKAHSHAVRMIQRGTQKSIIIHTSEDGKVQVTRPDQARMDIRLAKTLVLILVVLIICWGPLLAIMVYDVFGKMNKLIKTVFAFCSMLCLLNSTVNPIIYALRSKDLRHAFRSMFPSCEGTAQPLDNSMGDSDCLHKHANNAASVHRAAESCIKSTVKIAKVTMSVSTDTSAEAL

| Structure (SMILES) | pIC50 (CB1 receptor [1]; [6]) | pIC50 (CB2 receptor [2]) | pEC50 (CB1 receptor [3]) | pEC50 (CB1 receptor [4]; [7]) | pEC50 (CB2 receptor [5]) | pIC50 (CB1 receptor [1]; read-out: Cannabinoid CB1 Receptor Binding IC50, calculated by linear regression from percent inhibition at various test concentrations) | pEC50 (CB1 receptor [4]; read-out: CB1 EC50 (Receptor Functional Activity), one sample per compound, Cpd 237 n=3) | inhibition at 0.2 µM (CB1 receptor [1]) [%] | CB2 receptor binding percent inhibition (CB2 receptor [2]; test concentration 0.2 μM (footnote 2), 0.2 µM) [%] | inhibition at 0.2 µM (CB2 receptor [2]; test concentration 0.2 μM (footnote 2), read-out: CB2 receptor binding percent inhibition) [%] |
| --- | --- | --- | --- | --- | --- | --- | --- | --- | --- | --- |
| O=C(N[C@H](CO)c1ccccc1)c1n[nH]c2c1CCCCC2Cc1cccc(Cl)c1 (single isomer, unassigned) [Cpd 230, (8R*)-8-(3-chloro-benzyl)-1,4,5,6,7,8-hexahydro-cycloheptapyrazole-3-carboxylic acid [(1S)-2-hydroxy-1-phenyl-ethyl]-amide] | 6.52 | 7.40 | 6.00 | < 6.00 | 7.96 | – | – | – | – | – |
| O=C(N[C@H](CO)c1ccccc1)c1n[nH]c2c1CCCCC2Cc1cccc(Cl)c1 (single isomer, unassigned) [Cpd 231, (8S*)-8-(3-chloro-benzyl)-1,4,5,6,7,8-hexahydro-cycloheptapyrazole-3-carboxylic acid [(1S)-2-hydroxy-1-phenyl-ethyl]-amide] | – | 6.70 | < 5.30 | – | 7.09 | 6.52 | < 6.00 | – | – | – |
| C[C@H](NS(=O)(=O)/C=C/c1n[nH]c2c1CCCCC2Cc1cccc(F)c1)c1ccccc1 (single isomer, unassigned) [Cpd 232, (2E)-2-[(8R*)-8-(3-fluoro-benzyl)-1,4,5,6,7,8-hexahydro-cycloheptapyrazol-3-yl]-ethenesulfonic acid [(1S)-1-phenyl-ethyl]-amide] | 6.52 | 7.22 | < 5.30 | ~5.49 | 6.82 | – | – | 0 | 81 | – |
| C[C@H](NS(=O)(=O)/C=C/c1n[nH]c2c1CCCC/C2=C\c1ccc(Cl)cc1)c1ccccc1 [Cpd 237, (2E,8E)-2-[8-(4-chloro-benzylidene)-1,4,5,6,7,8-hexahydro-cycloheptapyrazol-3-yl]-ethenesulfonic acid [(1S)-1-phenyl-ethyl]-amide] | 6.52 | 7.00 | 5.77 | 5.44 | 5.49 | – | – | 0 | – | 64 |
